Data: patent publication US11105799B2, “Biomarkers of therapeutic responsiveness” (Meso Scale Technologies, LLC., priority 2009, dated 2021)

Experiments:
[1] = system: human 786-0 RCC cells; test: Tumor size of human 786-0 RCC xenografts in mice treated with sorafenib; type: in vivo; conditions: tumor approximately 12 mm diameter at start
Experimental: A panel of biomarkers was measured in RCC xenograft tissue extracts from mice. The mice were implanted with human 786-0 RCC cells and the cells were allowed to grow until a tumor of approximately 12 mm diameter was formed. The “Set A” group of mice received no drug treatment prior to removal of the xenograft tissue. The other two groups of mice—“Set C” and “Set D”—were treated with sorafenib prior to removal of the xenograft tissue. […] The “Set D” developed resistance to the drug and the tumor size increased to 16 mm in diameter during treatment.

[2] = system: human 786-0 RCC cells; test: Multiplex immunoassay of biomarker levels in RCC xenograft tissue extracts from mice; type: in vivo; conditions: for AMPKa1 Total marker concentration +/- SD / AMPKa1 p174 marker concentration +/- SD / AMPKa1 p285 marker concentration +/- SD / Gsk3b Phospho marker concentration +/- SD / Gsk3b Total marker concentration +/- SD / Mek1/2 Phospho marker concentration +/- SD / Mek1/2 Total marker concentration +/- SD: 1 ug protein/well; for STAT3 Phospho marker concentration +/- SD: 2 ug protein/well; for Hif1a Total marker concentration +/- SD: 4 ug protein/well
Experimental: A panel of biomarkers was measured in RCC xenograft tissue extracts from mice. The mice were implanted with human 786-0 RCC cells and the cells were allowed to grow until a tumor of approximately 12 mm diameter was formed. The “Set A” group of mice received no drug treatment prior to removal of the xenograft tissue.
Multiplex immunoassay kits were used for detection of total and/or phosphorylated biomarkers (supplied by Meso Scale Diagnostics, LLC, Gaithersburg, Md.). Levels of each biomarker were determined by calibration of the assays with were either purified calibrator proteins or using control cell lysates from appropriately treated cultured cell lines (e.g., cells subjected to conditions known to induce or reduce levels of a specific biomarker). Calibration curves were derived by testing serial dilutions of the calibrator lysates or purified proteins. Levels of biomarkers in test samples were back-calculated from the calibration curves and were expressed in terms of wt. of protein per weight of tissue extract (for purified calibrators) or in terms of weight of crude control lysate protein per well (for lysate calibrators). Titrations of tumor extracts were carried out to determine the linearity of the assay response to sample dilution and to select the sample dilution that would be appropriate to use for each assay panel.
In general, the assay format was as follows, with minor alterations for specific assay panels as indicated in the assay protocols provided with each assay kit (supplied by Meso Scale Diagnostics, LLC): (1) block MSD MULTI-SPOT® plate for 1 hour with appropriate MSD® blocking solution and wash; (2) add 25 μl assay diluent to each well, if specified; (3) add 25 μl calibrator, or sample (diluted as appropriate) to each well; (4) incubate with shaking for 1-3 hours (time as specified) and wash the well; (5) add 25 μl labeled detection antibody solution to each well; (6) incubate with shaking for 1-2 hours (time as specified) and wash the well; (7) add 150 μl MSD read buffer to each well; (8) read plate immediately on MSD SI6000 Reader (supplied by Meso Scale Diagnostics, LLC).

[3] = system: tumor vasculature; conditions: xenograft studies; cited from earlier work
[4] = system: GSK30; conditions: melanoma cells; cited from earlier work
[5] = Tumor Group C (treated), sensitive to sorafenib, 0.5 ug total protein/well
[6] = Tumor Group C (treated), sensitive to sorafenib
[7] = Tumor Group C (treated), sensitive to sorafenib, 2.5 ug protein/well
[8] = Tumor Group D (resistant), sorafenib treated, 0.5 ug total protein/well
[9] = Tumor Group D (resistant), sorafenib treated
[10] = Tumor Group D (resistant), sorafenib treated, 2.5 ug protein/well

CNC(=O)c1cc(Oc2ccc(NC(=O)Nc3ccc(Cl)c(C(F)(F)F)c3)cc2)ccn1 [sorafenib]
tumor size ([1]; Set C, sensitive): tumor size decreased
tumor size (diameter) during treatment ([1]; Set D, developed resistance): 16 mm
Akt Phospho marker concentration +/- SD [2, 5]: 348 +/− 85 ng calibrator lysate protein/w
Akt Total marker concentration +/- SD [2, 5]: 142 +/− 43 ng calibrator lysate protein/w
Erk1/2 Phospho marker concentration +/- SD [2, 5]: 102 +/− 45 ng calibrator lysate protein/w
Met Phospho marker concentration +/- SD [2, 5]: 34 +/− 7 ng calibrator lysate protein/w
Met Total marker concentration +/- SD [2, 5]: 850 +/− 375 ng calibrator lysate protein/w
p21 Total marker concentration +/- SD [2, 5]: 1.1 +/− 0.3 pg/ug tumor protein
p38 Total marker concentration +/- SD [2, 5]: 449 +/− 266 ng calibrator lysate protein/w
AMPKa1 Total marker concentration +/- SD [2, 6]: 29 +/− 13 pg/ug tumor protein
AMPKa1 p174 marker concentration +/- SD [2, 6]: 7.3 +/− 4.4 pg/ug tumor protein
AMPKa1 p285 marker concentration +/- SD [2, 6]: 29 +/− 15 pg/ug tumor protein
Gsk3b Phospho marker concentration +/- SD [2, 6]: 1188 +/− 446 ng calibrator lysate protein/w
Gsk3b Total marker concentration +/- SD [2, 6]: 3771 +/− 1491 ng calibrator lysate protein/w
Mek1/2 Phospho marker concentration +/- SD [2, 6]: 116 +/− 21 ng calibrator lysate protein/w
Mek1/2 Total marker concentration +/- SD [2, 6]: 350 +/− 90 ng calibrator lysate protein/w
STAT3 Phospho marker concentration +/- SD [2, 6]: 65 +/− 16 ng calibrator lysate protein/w
Jnk Phospho marker concentration +/- SD [2, 7]: 74 +/− 29 ng calibrator lysate protein/w
Jnk Total marker concentration +/- SD [2, 7]: 983 +/− 356 ng calibrator lysate protein/w
PlGF Total marker concentration +/- SD [2, 7]: 0.083 +/− 0.031 pg/ug tumor protein
VEGFR-1 Total marker concentration +/- SD [2, 7]: 0.26 +/− 0.08 pg/ug tumor protein
bFGF Total marker concentration +/- SD [2, 7]: 2.1 +/− 0.6 pg/ug tumor protein
Hif1a Total marker concentration +/- SD [2, 6]: 19 +/− 3 ng calibrator lysate protein/w
Akt Phospho marker concentration +/- SD [2, 8]: 354 +/− 84 ng calibrator lysate protein/w
Akt Total marker concentration +/- SD [2, 8]: 93 +/− 25 ng calibrator lysate protein/w
Erk1/2 Phospho marker concentration +/- SD [2, 8]: 206 +/− 103 ng calibrator lysate protein/w
Erk1/2 Total marker concentration +/- SD [2, 8]: 486 +/− 306 ng calibrator lysate protein/w
Met Phospho marker concentration +/- SD [2, 8]: 41 +/− 6 ng calibrator lysate protein/w
Met Total marker concentration +/- SD [2, 8]: 595 +/− 137 ng calibrator lysate protein/w
p21 Total marker concentration +/- SD [2, 8]: 2.2 +/− 0.9 pg/ug tumor protein
p38 Total marker concentration +/- SD [2, 8]: 428 +/− 227 ng calibrator lysate protein/w
AMPKa1 Total marker concentration +/- SD [2, 9]: 26 +/− 10 pg/ug tumor protein
AMPKa1 p174 marker concentration +/- SD [2, 9]: 3.8 +/− 0.9 pg/ug tumor protein
AMPKa1 p285 marker concentration +/- SD [2, 9]: 19 +/− 5 pg/ug tumor protein
Gsk3b Phospho marker concentration +/- SD [2, 9]: 1474 +/− 294 ng calibrator lysate protein/w
Gsk3b Total marker concentration +/- SD [2, 9]: 3829 +/− 1058 ng calibrator lysate protein/w
Mek1/2 Phospho marker concentration +/- SD [2, 9]: 113 +/− 24 ng calibrator lysate protein/w
Mek1/2 Total marker concentration +/- SD [2, 9]: 359 +/− 103 ng calibrator lysate protein/w
STAT3 Phospho marker concentration +/- SD [2, 9]: 41 +/− 10 ng calibrator lysate protein/w
Jnk Phospho marker concentration +/- SD [2, 10]: 110 +/− 22 ng calibrator lysate protein/w
Jnk Total marker concentration +/- SD [2, 10]: 878 +/− 231 ng calibrator lysate protein/w
PlGF Total marker concentration +/- SD [2, 10]: 0.144 +/− 0.073 pg/ug tumor protein
VEGF Total marker concentration +/- SD [2, 10]: 26 +/− 15 pg/ug tumor protein
VEGFR-1 Total marker concentration +/- SD [2, 10]: 0.39 +/− 0.14 pg/ug tumor protein
bFGF Total marker concentration +/- SD [2, 10]: 2.6 +/− 1.3 pg/ug tumor protein
Hif1a Total marker concentration +/- SD [2, 9]: 14 +/− 3 ng calibrator lysate protein/w
effect on tumor vasculature [3]: reduction in tumor vasculature
effect on GSK3β activity [4]: activates GSK30
